We go through three molecules from patent US20150216823A1, “COMPOSITIONS FOR THE TREATMENT OF MIGRAINE HEADACHES AND METHODS THEREOF” (priority 2012, published 2015).

Like-named read-outs stand apart in the source and are kept apart here.

Series [1] in a line: Capsaicin solubilization experiments with varying Tween 80, visual assessment. It is filed as physicochemical. The note with it: capsaicin at 0.05-0.055% concentration. From the text:
Therefore, it was decided to evaluate the use of the concentrated capsaicin (a white powder) as a replacement for the oily oleoresin capsicum extract. However, as capsaicin powder is hydrophobic it was necessary to determine what quantity of surfactant was necessary to maintain the capsaicin in solution. A study was therefore conducted to determine the required concentration of a chosen surfactant (Tween 80) to achieve and maintain complete dissolution of the capsaicin (assuming a capsaicin concentration of 0.054% w/v). In other words, the level of surfactant required for dissolving the capsaicin in an aqueous vehicle was determined as described below.
A series of experiments were undertaken to prepare various samples with the addition of a set quantity of capsaicin powder (equivalent to 0.05% in solution) and varying concentrations of Tween 80.
Sample 1: 1% Tween 80 was prepared according to the following protocol: […]; Tween 80; […]; and 10 mL stock solution. The sample was sonicated for 2 minutes and then visually assessed. […]
Sample 2: 0.5% Tween 80 was prepared according to the following protocol: […] Tween 80; 0.011 g capsaicin; and 10 mL stock solution. The sample was sonicated for 2 minutes and then visually assessed. […]
All samples were left overnight and visually assessed again on the following day. […]

For series [2] the following is noted: cited from earlier work.

As to `COc1cc(CNC(=O)CCCC/C=C/C(C)C)ccc1O` [capsaicin], the “required concentration of Tween 80 in the stock solution to achieve complete dissolution of capsaicin” value in series [1] is reported as 0.5 % w/v.

Turning to `NC(=O)CC[C@@H]1NC(=O)[C@H](Cc2ccccc2)NC(=O)[C@H](Cc2ccc(O)cc2)NC(=O)CCSSC[C@@H](C(=O)N2CCC[C@H]2C(=O)N[C@H](CCCN=C(N)N)C(=O)NCC(N)=O)NC(=O)[C@H](CC(N)=O)NC1=O` [desmopressin], in series [2] (in vivo), the “bio-availability of the nasal spray formulation relative to the nasal drop formulation” value was “two to three times higher”.

Regarding `CCC(=O)O[C@]1(C(=O)SCF)[C@H](C)C[C@H]2[C@@H]3C[C@H](F)C4=CC(=O)C=C[C@]4(C)[C@@]3(F)[C@@H](O)C[C@@]21C` [fluticasone propionate], the “bio-availability of the nasal spray formulation relative to the nasal drop formulation” value in series [2] (intranasal administration) is given as “about eight times higher”.
